Measurements taken from US12644840B2, “Pathogenic susceptibility assessment based on autofluoresence” (Adiuvo D[…] Limited, priority 2021, dated 2026).

Assays:
[1] = test system: Mycobacterium tuberculosis; test: Autofluorescence-based susceptibility testing of positive sputum samples; assay type: cell-based
Pseudomonas aeruginosa = settings: concentration added to sensitive and resistant strain wells; imaged at 0th and 4th hour; cited from earlier work

Compound	MIC [1]	Minimum Inhibitory Concentration (MIC) Value (Pseudomonas aeruginosa)
NC[C@H]1O[C@H](O[C@H]2[C@H](O)[C@@H](O[C@H]3O[C@H](CO)[C@@H](O)[C@H](N)[C@H]3O)[C@H](N)C[C@@H]2N)[C@H](O)[C@@H](O)[C@@H]1O [kanamycin]	> 3 mg/L	–
C[C@@H](O)[C@H]1C(=O)N2C(C(=O)O)=C(S[C@@H]3CN[C@H](C(=O)N(C)C)C3)[C@H](C)[C@H]12 [meropenem]	–	4 mg/L
